Laboratory results from patent publication US20240210394A1, “MICROORGANISM CAPTURE FROM ANTIMICROBIAL-CONTAINING SOLUTION” (MOMENTUM BIOSCIENCE LIMITED, priority 2019, published 2024).

Key:
Candida albicans = test: Blood culture time to positivity (flip time), bead rescue vs no-rescue control; assay type: cell-based; details: 4000 cfu/5 mL Blood
Method: (§1) Day 1: […] (or 30° C. for C. neoformans) in a shaking incubator. Day 2: […] (or 30° C. for C. neoformans) for 2 h for outgrowth. • Antibiotic added to whole blood (defibrinated horse blood) at required level • Whole blood as no-antibiotic control • Test dilution(s) of organism added to blood+antibiotic or blood only at 10 μL per mL of blood (sufficient prepared for experiment requirements) • 100 μL plate count sample taken (TO sample) • 2-hour incubation (static) at 37° C. […] […] on V&P magnet for 10 min then remove supernatant • 7. […] […] for 3 min then remove supernatant • 9. Resuspend beads in 1 mL Detergent-free Wash Buffer (DWB) off magnet then replace on DynaMag-2 magnet • 10. […] for 3 min then remove supernatant • 11. Resuspend beads in 1 mL DWB, add to new blood culture bottle (using vial adapter) and start incubation (adapter removed) […] The “Flip” time is when a bottle turns positive as determined by the automated blood culture cabinet, which records time to positivity.

Cryptococcus neoformans = test: as above; assay type: cell-based; details: antibiotic 2 mg/L blood; 102200 cfu/5 mL Blood
Method: as §1

E. coli [1] = details: cited from earlier work
E. coli [2] = test: Blood culture time to positivity (flip time), bead rescue vs no-rescue control; assay type: cell-based; details: for Flip time: Bead rescue; for Bead Rescue Flip time / Control Flip time in Days: antibiotic 0.075 mg/L blood
Method: (§2) Day 1: Prepare overnight culture of test organism in blood/broth medium (50:50 blood:broth) and incubate at 37° C. in a shaking incubator.
Day 2: Prepare ten-fold serial dilution of overnight culture in blood/broth as required and incubate at 37° C. for 2 h for outgrowth.
Add 5 mL of spiked blood+beads (set 1) and 5 mL of spiked blood/Abx+beads (set 3) to blood culture bottles (BioMerieux SA culture bottle) using a vial adapter (West Pharmaceutical Services, Inc. PA, US).
Remove the adaptor and incubate the blood culture bottles in the automated blood culture cabinet (BacT/ALERT BioMerieux) for up to 5 days.
(§3) Record the “Flip” time of each bottle or bottle result at the end of 5 days incubation. The “Flip” time is when a bottle turns positive as determined by the automated blood culture cabinet, which records time to positivity.
(§4) Day 1: Prepare overnight culture of test organism in blood/broth medium (50:50 blood:broth) and incubate at 37° C. (or 30° C. for C. neoformans) in a shaking incubator.
(or 30° C. for C. neoformans) for 2 h for outgrowth. • Antibiotic added to whole blood (defibrinated horse blood) at required level • Whole blood as no-antibiotic control • Test dilution(s) of organism added to blood+antibiotic or blood only at 10 μL per mL of blood (sufficient prepared for experiment requirements) • 100 μL plate count sample taken (TO sample) • 2-hour incubation (static) at 37° C. (or 30° C. for C. neoformans) • 100 μL plate count sample taken (T2 sample) • 5 mL of spiked blood+abx or blood only added to blood culture bottle (using vial adapter) and incubation started (adapter removed) • 5 mL of spiked blood+abx or blood only (from same source) treated with Momentum Capture Beads as below: • 1. Capture Beads diluted in the relevant Capture Reagent—50 μL beads:700 μL capture reagent per clean-up • 2. 750 μL of diluted beads added to 50 mL conical centrifuge tube • 3. 5 mL of transfer medium added to tube • 4. 5 mL of spiked blood+abx or blood only added to tube • 5. […] Magnetise on V&P magnet for 10 min then remove supernatant • 7. Resuspend beads in 1 mL Detergent-free Wash Buffer (DWB) off magnet and transfer to 2 mL Eppendorf flip-top tube on DynaMag-2 magnet • 8. Magnetise for 3 min then remove supernatant • 9. Resuspend beads in 1 mL Detergent-free Wash Buffer (DWB) off magnet then replace on DynaMag-2 magnet • 10. Magnetise for 3 min then remove supernatant • 11. Resuspend beads in 1 mL DWB, add to new blood culture bottle (using vial adapter) and start incubation (adapter removed)
Momentum Capture Beads diluted in the relevant Capture Reagent—50 μL beads:700 μL capture reagent per clean-up • 2. 750 μL of diluted beads added to 50 mL conical centrifuge tube • 3. 5 mL of transfer medium added to tube • 4. 5 mL of spiked blood+abx or blood only added to tube • 5. […] Magnetise on V&P magnet for 10 min then remove supernatant • 7. Resuspend beads in 1 mL Detergent-free Wash Buffer (DWB) off magnet and transfer to 2 mL Eppendorf flip-top tube on DynaMag-2 magnet • 8. Magnetise for 3 min then remove supernatant • 9. Resuspend beads in 1 mL Detergent-free Wash Buffer (DWB) off magnet then replace on DynaMag-2 magnet • 10. Magnetise for 3 min then remove supernatant • 11. Resuspend beads in 1 mL DWB, add to an unused blood culture bottle (BioMerieux FA+culture bottle) using vial adapter and start incubation (adapter removed)

S. pneumoniae = test: as above; assay type: cell-based; details: for Flip time: Bead rescue; for Flip time / Flip time in Days: 12600 cfu/5 ml blood; for Flip time in Days: Control (FA plus bottle); for Bead Rescue Flip time / Control Flip time in Days: antibiotic 1 mg/L blood
Method: as §4
(or 30° C. for C. neoformans) for 2 h for outgrowth. • Antibiotic added to whole blood (defibrinated horse blood) at required level • Whole blood as no-antibiotic control • Test dilution(s) of organism added to blood+antibiotic or blood only at 10 μL per mL of blood (sufficient prepared for experiment requirements) • 100 μL plate count sample taken (TO sample) • 2-hour incubation (static) at 37° C. (or 30° C. for C. neoformans) • 100 μL plate count sample taken (T2 sample) • 5 mL of spiked blood+abx or blood only added to blood culture bottle (using vial adapter) and incubation started (adapter removed) • 5 mL of spiked blood+abx or blood only (from same source) treated with Momentum Capture Beads as below: • 1. Capture Beads diluted in the relevant Capture Reagent—50 μL beads:700 μL capture reagent per clean-up • 2. 750 μL of diluted beads added to 50 mL conical centrifuge tube • 3. 5 mL of transfer medium added to tube • 4. 5 mL of spiked blood+abx or blood only added to tube • 5. Incubate on ITL TherMix (32.5° C./30 min/1000 rpm—ramped speed protocol) • 6. Magnetise on V&P magnet for 10 min then remove supernatant • 7. Resuspend beads in 1 mL Detergent-free Wash Buffer (DWB) off magnet and transfer to 2 mL Eppendorf flip-top tube on DynaMag-2 magnet • 8. Magnetise for 3 min then remove supernatant • 9. Resuspend beads in 1 mL Detergent-free Wash Buffer (DWB) off magnet then replace on DynaMag-2 magnet • 10. Magnetise for 3 min then remove supernatant • 11. Resuspend beads in 1 mL DWB, add to new blood culture bottle (using vial adapter) and start incubation (adapter removed)
as §3, §2
Momentum Capture Beads diluted in the relevant Capture Reagent—50 μL beads:700 μL capture reagent per clean-up • 2. 750 μL of diluted beads added to 50 mL conical centrifuge tube • 3. 5 mL of transfer medium added to tube • 4. 5 mL of spiked blood+abx or blood only added to tube • 5. Incubate on ITL TherMix (32.5° C./30 min/1000 rpm—ramped speed protocol) • 6. Magnetise on V&P magnet for 10 min then remove supernatant • 7. Resuspend beads in 1 mL Detergent-free Wash Buffer (DWB) off magnet and transfer to 2 mL Eppendorf flip-top tube on DynaMag-2 magnet • 8. Magnetise for 3 min then remove supernatant • 9. Resuspend beads in 1 mL Detergent-free Wash Buffer (DWB) off magnet then replace on DynaMag-2 magnet • 10. Magnetise for 3 min then remove supernatant • 11. Resuspend beads in 1 mL DWB, add to an unused blood culture bottle (BioMerieux FA+culture bottle) using vial adapter and start incubation (adapter removed)
To compare organism capture and rescue from FA plus bottles, on S. pneumoniae in Ceftriaxone. Reproduce experiment by Flayhart et al. 2007 testing antibiotic concentrations of 250, 125 and 94 mg/L and also include concentrations of 50 and 10 mg/L.
In the table below, “control” represents samples processed using FA plus bottles (also referred to as “BC” in the final column) and “bead rescue” refers to samples processed according to the methods of the invention.

C[C@@H]1[C@H](O)[C@@H](C)/C=C/C=C/C=C/C=C/C=C/C=C/C=C/[C@H](O[C@@H]2O[C@H](C)[C@@H](O)[C@H](N)[C@@H]2O)C[C@@H]2O[C@](O)(C[C@@H](O)C[C@@H](O)[C@H](O)CC[C@@H](O)C[C@@H](O)CC(=O)O[C@H]1C)C[C@H](O)[C@H]2C(=O)O [Amphoteracin B]
Bead Rescue Flip time (Candida albicans; antibiotic 1 mg/L blood): 1.27 days | Control Flip time (Candida albicans; antibiotic 1 mg/L blood): 2.22 days | Bead Rescue Flip time (Candida albicans; antibiotic 2 mg/L blood): 1.85 days | Control Flip time (Candida albicans; antibiotic 2 mg/L blood): 2.98 days | Bead Rescue Flip time (Cryptococcus neoformans): 3.14 days | Control Flip time (Cryptococcus neoformans): 3.7 days

CO/N=C(\C(=O)N[C@@H]1C(=O)N2C(C(=O)O)=C(COC(C)=O)CS[C@H]12)c1csc(N)n1 [Cefotaxime]
MIC (E. coli [1]): ≤1 µg/mL | Flip time (E. coli [2]; Cefotaxime 100 mg/L blood, 50800 cfu/5 mL blood): 0.39 days | Flip time (E. coli [2]; Cefotaxime 100 mg/L blood, 508000 cfu/5 mL blood): 0.31 days | Flip time in Days (E. coli [2]; Control (FA plus bottle), Cefotaxime 100 mg/L blood, 50800 cfu/5 mL blood): Neg | Flip time in Days (E. coli [2]; Control (FA plus bottle), Cefotaxime 100 mg/L blood, 508000 cfu/5 mL blood): Neg

CO/N=C(\C(=O)N[C@@H]1C(=O)N2C(C(=O)O)=C(CSc3nc(=O)c(=O)[nH]n3C)CS[C@H]12)c1csc(N)n1 [Ceftriaxone]
Flip time (S. pneumoniae; Ceftriaxone 10 mg/L blood): 0.46 days | Flip time (S. pneumoniae; Ceftriaxone 50 mg/L blood): 0.47 days | Flip time (S. pneumoniae; Ceftriaxone 94 mg/L blood): 0.52 days | Flip time (S. pneumoniae; Ceftriaxone 125 mg/L blood): 0.49 days | Flip time (S. pneumoniae; Ceftriaxone 250 mg/L blood): 0.51 days | Flip time in Days (S. pneumoniae; Ceftriaxone 10 mg/L blood): Neg | Flip time in Days (S. pneumoniae; Ceftriaxone 50 mg/L blood): Neg | Flip time in Days (S. pneumoniae; Ceftriaxone 94 mg/L blood): Neg | Flip time in Days (S. pneumoniae; Ceftriaxone 125 mg/L blood): Neg | Flip time in Days (S. pneumoniae; Ceftriaxone 250 mg/L blood): Neg

CO/N=C(\C(=O)N[C@@H]1C(=O)N2C(C(=O)O)=C(CSc3nc(=O)c(O)nn3C)CS[C@H]12)c1csc(N)n1 [Celtriaxone]
Bead Rescue Flip time (S. pneumoniae; 200 cfu/5 mL Blood): 0.86 days | Control Flip time in Days (S. pneumoniae; 200 cfu/5 mL Blood): Neg | Bead Rescue Flip time (S. pneumoniae; 10000 cfu/5 mL Blood): 0.71 days | Control Flip time in Days (S. pneumoniae; 10000 cfu/5 mL Blood): Neg | Bead Rescue Flip time (S. pneumoniae; 100000 cfu/5 mL Blood): 0.68 days | Control Flip time in Days (S. pneumoniae; 100000 cfu/5 mL Blood): Neg

O=C(O)c1cn(C2CC2)c2cc(N3CCNCC3)c(F)cc2c1=O [Ciprofloxacin]
Flip time In Days (E. coli [2]; Ciprofloxacin 0.075 mg/L blood, 11400 Cfu/mL (first set, r5-r10), bead rescue with named bead type, antibiotic-labelled line = BC control without beads): Negative | Flip time In Days (E. coli [2]; Ciprofloxacin 0.075 mg/L blood, 11400 Cfu/mL (second set, r11-r16), bead rescue with named bead type, antibiotic-labelled line = BC control without beads): Negative | Difference (Days) compared to BE (E. coli [2]; Ciprofloxacin 0.075 mg/L blood, 380800 Cfu/mL (some rows print 360800), antibiotic-labelled line = BC control without beads): Negative | Flip time in Days (E. coli [2]; Ciprofloxacin 0.075 mg/L blood, 380800 Cfu/mL (some rows print 360800), bead rescue with named bead type, antibiotic-labelled line = BC control without beads): Negative | Difference (Days) compared to BE (E. coli [2]; Ciprofloxacin 0.075 mg/l blood, 11400 Cfu/mL (first set, r5-r10), antibiotic-labelled line = BC control without beads): Negative | Difference (Days) compared to BE (E. coli [2]; Ciprofloxacin 0.075 mg/l blood, 11400 Cfu/mL (second set, r11-r16), antibiotic-labelled line = BC control without beads): Negative | No-rescue blood culture control result (E. coli [2]; Example 23, E. coli in blood containing 0.075 mg/L Ciprofloxacin): negative after 5 days | Blood culture controls (no bead rescue) result (E. coli [2]; Example 24, E. coli in blood containing 0.075 mg/L Ciprofloxacin): negative | Bead Rescue Flip time (E. coli [2]; 100000 cfu/5 mL Blood): 0.68 days | Control Flip time in Days (E. coli [2]; 100000 cfu/5 mL Blood): Neg | Bead Rescue Flip time (E. coli [2]; 1000000 cfu/5 mL Blood): 0.61 days | Control Flip time in Days (E. coli [2]; 1000000 cfu/5 mL Blood): Neg
